# Source: patent publication US20020103117A1, “Use of protein kinase-inhibitor-alpha” (priority 2000, published 2002)
# How the values were obtained:
# protein kinase-A = assay: Activity of protein kinase-A in cell cultures of myocytes; type: cell-based; details: cell cultures of myocytes (e.g., C9H2 cells)
# Protocol: The protein-kinase-inhibitor alpha shortened to amino acids 14 to 22 was added to the cell cultures of myocytes (e.g., C9H2 cells, available from the American Type Culture Collection), and the activity of protein kinase-A was determined.
# The 9-amino-acid-long PKI-alpha inhibitor (the gene product of the second open reader frame of the PKI gene in humans and in pigs) was added to the cell cultures of myocytes, and the expression of the PKI-alpha and the activity of protein kinase-A were determined.
# functioning rat heart = assay: Action of PKI-alpha on an isolated, perfused functioning rat heart; parameters: species or system Sprague Dawley rats
# Protocol: Hearts from a total of six Sprague Dawley rats with a weight of about 300 g were isolated and perfused as described in Schulze et al. (Schulze et al.; Circulation 1990: 959-69). The hemodynamic parameters including contractility, external heart work (EHW), coronary and aortic flow were recorded about 15 minutes after antegrade perfusion. Cell-permeable, recombinant PKI-alpha (amino acids 14 to 22, Calbiochem #476485) was then administered. The compound was infused directly into the atrium canula using a motor pump. The infusion rate was continuously adapted to the emission volume (the sum of the aortic and coronary flow) and increased in five-minute intervals to reach the final PKI-alpha concentrations in the perfusate of 0.5, 1.0 and 2.0 μmol/l.
# [1] = PKI-alpha in perfusate 0.5, 1.0 and 2.0 μmol/l
substance,measurement,setting,value
"shortened PKI-alpha: Cell-permeable, recombinant PKI-alpha comprising only amino acids 14 to 22 of the complete sequence, Calbiochem #476485",activity of protein kinase-A,protein kinase-A,dose-dependent reduction of activity
same,"decrease of the left ventricular function, expressed as dp/dt-max",functioning rat heart; [1],53%
same,reduction of the external heart work,functioning rat heart; [1],43%
same,depression of the myocardial function,functioning rat heart; infusion up to 2 μmol,"pronounced, reversible, concentration-dependent (up to 2 μmol) depression of the myocardial function"
